Read-outs that look alike come from different tables or passages of the source.
Key:
Experiment in all cases: selectivity profiling in a panel of 340 wild-type kinases (Reaction Biology Europe)
Assay type in all cases: binding
340 wild-type kinases [1] = target: T1, 340 wild-type kinases (Homo sapiens, UniProt P25098)
T1 construct: purchased Reaction Biology Europe
T1 sequence (P25098 1-689): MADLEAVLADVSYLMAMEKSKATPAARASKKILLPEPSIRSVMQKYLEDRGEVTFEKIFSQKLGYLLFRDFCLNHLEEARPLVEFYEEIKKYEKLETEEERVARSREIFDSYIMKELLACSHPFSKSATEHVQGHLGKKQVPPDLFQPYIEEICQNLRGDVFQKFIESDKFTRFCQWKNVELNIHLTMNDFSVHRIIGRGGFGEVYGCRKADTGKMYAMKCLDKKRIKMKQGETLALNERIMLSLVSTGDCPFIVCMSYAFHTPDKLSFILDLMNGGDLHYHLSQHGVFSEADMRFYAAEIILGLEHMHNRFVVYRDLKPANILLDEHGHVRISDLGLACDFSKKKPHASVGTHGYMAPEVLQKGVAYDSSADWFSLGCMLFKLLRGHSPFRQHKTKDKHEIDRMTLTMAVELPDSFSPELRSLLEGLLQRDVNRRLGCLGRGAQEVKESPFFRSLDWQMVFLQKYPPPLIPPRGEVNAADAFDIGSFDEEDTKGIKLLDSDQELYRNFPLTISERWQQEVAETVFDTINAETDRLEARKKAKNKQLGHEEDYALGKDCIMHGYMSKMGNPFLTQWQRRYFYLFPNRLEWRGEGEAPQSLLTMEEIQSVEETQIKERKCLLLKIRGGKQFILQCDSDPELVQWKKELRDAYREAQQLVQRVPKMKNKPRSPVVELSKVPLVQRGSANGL

340 wild-type kinases [2] = target: T2, 340 wild-type kinases (Homo sapiens, UniProt Q86Y07)
T2 construct: purchased Reaction Biology Europe
T2 sequence (Q86Y07 whole entry): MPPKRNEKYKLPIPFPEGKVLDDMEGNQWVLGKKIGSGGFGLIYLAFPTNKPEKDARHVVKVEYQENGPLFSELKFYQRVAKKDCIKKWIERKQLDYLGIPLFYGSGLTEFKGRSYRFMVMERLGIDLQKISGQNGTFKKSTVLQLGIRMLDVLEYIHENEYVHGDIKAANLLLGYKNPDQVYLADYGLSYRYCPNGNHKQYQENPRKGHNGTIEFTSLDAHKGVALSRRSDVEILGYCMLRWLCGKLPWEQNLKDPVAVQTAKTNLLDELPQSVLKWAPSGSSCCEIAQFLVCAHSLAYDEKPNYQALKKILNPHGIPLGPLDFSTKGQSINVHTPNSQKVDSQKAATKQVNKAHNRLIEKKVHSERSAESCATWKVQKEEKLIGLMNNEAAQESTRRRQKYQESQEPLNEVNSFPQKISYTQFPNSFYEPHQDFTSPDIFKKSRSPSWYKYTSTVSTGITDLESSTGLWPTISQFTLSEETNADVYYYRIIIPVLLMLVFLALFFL

340 wild-type kinases [3] = target: T3, 340 wild-type kinases (Homo sapiens, UniProt P15735)
T3 construct: purchased Reaction Biology Europe
T3 sequence (P15735 1-406): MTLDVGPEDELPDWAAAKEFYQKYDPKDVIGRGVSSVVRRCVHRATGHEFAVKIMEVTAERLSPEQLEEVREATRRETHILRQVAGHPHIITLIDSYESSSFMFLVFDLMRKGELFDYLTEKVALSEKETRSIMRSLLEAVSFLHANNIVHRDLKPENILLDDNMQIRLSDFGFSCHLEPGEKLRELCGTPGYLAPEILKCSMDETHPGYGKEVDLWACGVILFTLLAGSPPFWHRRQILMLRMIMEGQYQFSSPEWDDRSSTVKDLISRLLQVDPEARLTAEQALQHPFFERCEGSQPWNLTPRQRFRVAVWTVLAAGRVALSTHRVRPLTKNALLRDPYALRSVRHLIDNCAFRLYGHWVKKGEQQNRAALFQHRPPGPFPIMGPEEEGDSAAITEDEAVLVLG

340 wild-type kinases [4] = target: T4, 340 wild-type kinases (Homo sapiens, UniProt P37023)
T4 construct: purchased Reaction Biology Europe
T4 sequence (P37023 22-503): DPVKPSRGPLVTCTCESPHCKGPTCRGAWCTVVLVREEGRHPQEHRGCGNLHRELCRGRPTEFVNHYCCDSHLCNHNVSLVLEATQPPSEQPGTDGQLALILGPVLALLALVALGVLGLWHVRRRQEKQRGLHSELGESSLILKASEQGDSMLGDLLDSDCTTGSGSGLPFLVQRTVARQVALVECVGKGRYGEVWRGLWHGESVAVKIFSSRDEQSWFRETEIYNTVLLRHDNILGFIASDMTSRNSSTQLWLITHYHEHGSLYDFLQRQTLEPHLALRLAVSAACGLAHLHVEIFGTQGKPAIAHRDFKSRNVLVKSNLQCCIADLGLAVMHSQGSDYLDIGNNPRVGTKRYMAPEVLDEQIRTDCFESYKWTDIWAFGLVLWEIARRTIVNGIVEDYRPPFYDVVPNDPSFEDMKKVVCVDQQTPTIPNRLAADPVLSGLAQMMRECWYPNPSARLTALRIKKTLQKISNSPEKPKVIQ

340 wild-type kinases [5] = target: T5, 340 wild-type kinases (Homo sapiens, UniProt P54762)
T5 construct: purchased Reaction Biology Europe
T5 sequence (P54762 18-984): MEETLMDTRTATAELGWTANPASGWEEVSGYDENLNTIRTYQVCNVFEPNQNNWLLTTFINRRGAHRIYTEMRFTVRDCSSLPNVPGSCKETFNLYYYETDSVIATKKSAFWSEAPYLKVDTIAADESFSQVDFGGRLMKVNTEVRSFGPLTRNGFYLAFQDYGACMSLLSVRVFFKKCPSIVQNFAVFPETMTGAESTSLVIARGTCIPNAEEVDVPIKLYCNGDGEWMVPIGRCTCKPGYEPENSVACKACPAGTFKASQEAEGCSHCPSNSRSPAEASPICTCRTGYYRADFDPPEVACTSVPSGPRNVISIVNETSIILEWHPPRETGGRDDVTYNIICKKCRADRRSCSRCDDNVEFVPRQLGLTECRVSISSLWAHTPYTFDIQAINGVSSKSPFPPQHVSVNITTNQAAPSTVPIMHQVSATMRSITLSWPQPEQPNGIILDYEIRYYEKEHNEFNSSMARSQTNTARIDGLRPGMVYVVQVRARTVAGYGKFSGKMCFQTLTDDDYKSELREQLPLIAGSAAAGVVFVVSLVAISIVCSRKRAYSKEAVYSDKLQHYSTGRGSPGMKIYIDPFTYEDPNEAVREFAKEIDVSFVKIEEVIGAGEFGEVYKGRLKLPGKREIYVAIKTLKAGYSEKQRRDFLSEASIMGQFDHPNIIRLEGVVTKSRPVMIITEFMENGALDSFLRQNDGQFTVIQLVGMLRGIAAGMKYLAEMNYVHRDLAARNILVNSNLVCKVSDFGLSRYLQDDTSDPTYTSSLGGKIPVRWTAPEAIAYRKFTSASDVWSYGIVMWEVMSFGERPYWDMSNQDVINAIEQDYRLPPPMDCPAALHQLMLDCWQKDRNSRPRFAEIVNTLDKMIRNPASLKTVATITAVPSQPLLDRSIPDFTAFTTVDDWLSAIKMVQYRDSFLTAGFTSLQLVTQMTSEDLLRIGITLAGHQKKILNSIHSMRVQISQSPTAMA

340 wild-type kinases [6] = target: T6, 340 wild-type kinases (Homo sapiens, UniProt Q9UK32)
T6 construct: purchased Reaction Biology Europe
T6 sequence (Q9UK32 whole entry): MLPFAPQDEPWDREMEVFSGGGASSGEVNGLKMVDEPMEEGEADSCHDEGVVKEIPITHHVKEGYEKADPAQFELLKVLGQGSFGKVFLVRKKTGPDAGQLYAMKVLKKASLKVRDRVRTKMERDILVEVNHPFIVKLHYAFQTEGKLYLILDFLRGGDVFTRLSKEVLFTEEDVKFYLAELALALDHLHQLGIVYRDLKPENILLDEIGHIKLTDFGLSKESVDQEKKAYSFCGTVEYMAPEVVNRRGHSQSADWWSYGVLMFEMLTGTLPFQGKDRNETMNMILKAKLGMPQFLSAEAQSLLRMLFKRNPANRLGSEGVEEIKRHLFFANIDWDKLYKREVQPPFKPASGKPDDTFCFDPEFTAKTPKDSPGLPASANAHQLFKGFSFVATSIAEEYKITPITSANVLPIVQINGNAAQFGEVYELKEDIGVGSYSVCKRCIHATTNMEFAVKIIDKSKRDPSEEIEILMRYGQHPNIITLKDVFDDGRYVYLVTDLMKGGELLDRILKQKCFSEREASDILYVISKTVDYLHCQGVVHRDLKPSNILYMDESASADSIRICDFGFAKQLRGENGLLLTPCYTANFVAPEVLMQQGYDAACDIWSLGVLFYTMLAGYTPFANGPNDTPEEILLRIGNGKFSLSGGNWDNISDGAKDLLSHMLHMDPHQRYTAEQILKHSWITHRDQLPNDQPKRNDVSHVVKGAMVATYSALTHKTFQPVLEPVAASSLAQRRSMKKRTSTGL

340 wild-type kinases [7] = target: T7, 340 wild-type kinases (Homo sapiens, UniProt Q86UE8)
T7 construct: purchased Reaction Biology Europe
T7 sequence (Q86UE8 whole entry): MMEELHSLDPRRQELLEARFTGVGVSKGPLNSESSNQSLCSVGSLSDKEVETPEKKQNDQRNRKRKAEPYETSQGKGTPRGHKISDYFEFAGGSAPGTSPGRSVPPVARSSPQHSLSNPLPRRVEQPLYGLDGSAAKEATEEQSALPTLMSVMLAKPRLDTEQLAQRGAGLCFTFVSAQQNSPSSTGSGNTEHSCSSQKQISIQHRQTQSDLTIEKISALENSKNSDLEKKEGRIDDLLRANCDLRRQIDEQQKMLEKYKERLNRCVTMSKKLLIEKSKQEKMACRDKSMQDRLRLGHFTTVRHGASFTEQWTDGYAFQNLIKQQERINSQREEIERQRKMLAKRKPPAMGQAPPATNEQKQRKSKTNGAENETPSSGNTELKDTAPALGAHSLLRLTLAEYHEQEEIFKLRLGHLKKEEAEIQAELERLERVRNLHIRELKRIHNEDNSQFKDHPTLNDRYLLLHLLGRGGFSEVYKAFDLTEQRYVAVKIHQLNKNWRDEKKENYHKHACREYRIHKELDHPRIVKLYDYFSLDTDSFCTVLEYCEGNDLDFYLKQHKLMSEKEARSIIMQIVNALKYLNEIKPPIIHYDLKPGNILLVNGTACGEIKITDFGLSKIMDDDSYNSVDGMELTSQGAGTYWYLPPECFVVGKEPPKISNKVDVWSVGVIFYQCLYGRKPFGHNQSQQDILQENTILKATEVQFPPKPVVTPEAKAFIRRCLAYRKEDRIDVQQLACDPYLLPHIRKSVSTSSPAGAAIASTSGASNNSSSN

340 wild-type kinases [8] = target: T8, 340 wild-type kinases (Homo sapiens, UniProt P49336)
T8 construct: purchased Reaction Biology Europe
T8 sequence (P49336 whole entry): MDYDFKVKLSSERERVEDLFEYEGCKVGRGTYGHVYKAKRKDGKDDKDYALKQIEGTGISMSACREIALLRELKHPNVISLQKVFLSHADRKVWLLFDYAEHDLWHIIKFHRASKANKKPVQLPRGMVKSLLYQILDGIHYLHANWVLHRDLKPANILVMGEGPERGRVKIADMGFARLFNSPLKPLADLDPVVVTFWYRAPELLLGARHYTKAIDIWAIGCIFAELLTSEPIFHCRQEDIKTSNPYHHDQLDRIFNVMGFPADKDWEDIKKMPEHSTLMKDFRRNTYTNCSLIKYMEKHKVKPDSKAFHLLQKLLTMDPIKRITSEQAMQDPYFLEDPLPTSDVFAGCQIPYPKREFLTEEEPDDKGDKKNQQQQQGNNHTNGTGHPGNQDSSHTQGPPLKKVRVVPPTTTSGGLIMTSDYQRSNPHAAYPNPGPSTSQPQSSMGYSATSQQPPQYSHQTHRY

CNC(=O)c1ccc2c(c1)C(=O)c1ccc(Nc3ccc(F)c(NC(=O)C4CC4)c3)cc1CC2 [Compound 2015]
remaining activity at 0.2 µM (340 wild-type kinases [1]; 0.2 µM 2015, read-out: GRK2 residual activity): 89.1% | remaining activity at 0.2 µM (340 wild-type kinases [1]; GRK2, 0.2 µM, read-out: residual activity): 89.2% | remaining activity at 1 µM (340 wild-type kinases [1]; GRK2, 1 µM, read-out: residual activity): 80.8% | remaining activity at 0.2 µM (340 wild-type kinases [2]; 0.2 µM 2015, read-out: VRK2 residual activity): 115% | remaining activity at 1 µM (340 wild-type kinases [2]; 1 µM 2015, read-out: VRK2 residual activity): 118% | remaining activity at 0.2 µM (340 wild-type kinases [2]; VRK2, 0.2 µM, read-out: residual activity): 115% | remaining activity at 1 µM (340 wild-type kinases [2]; VRK2, 1 µM, read-out: residual activity): 118% | remaining activity at 0.2 µM (340 wild-type kinases [3]; 0.2 µM 2015, read-out: PHKG2 residual activity): 102% | remaining activity at 1 µM (340 wild-type kinases [3]; 1 µM 2015, read-out: PHKG2 residual activity): 98.8% | remaining activity at 0.2 µM (340 wild-type kinases [3]; PHKG2, 0.2 µM, read-out: residual activity): 102% | remaining activity at 1 µM (340 wild-type kinases [3]; PHKG2, 1 µM, read-out: residual activity): 98.8% | remaining activity at 0.2 µM (340 wild-type kinases [4]; 0.2 µM 2015, read-out: ACVRL1 residual activity): 100% | remaining activity at 1 µM (340 wild-type kinases [4]; 1 µM 2015, read-out: ACVRL1 residual activity): 102% | remaining activity at 0.2 µM (340 wild-type kinases [4]; ACVRL1, 0.2 µM, read-out: residual activity): 100% | remaining activity at 1 µM (340 wild-type kinases [4]; ACVRL1, 1 µM, read-out: residual activity): 102% | remaining activity at 0.2 µM (340 wild-type kinases [5]; 0.2 µM 2015, read-out: EPHB1 residual activity): 118% | remaining activity at 1 µM (340 wild-type kinases [5]; 1 µM 2015, read-out: EPHB1 residual activity): 103% | remaining activity at 0.2 µM (340 wild-type kinases [5]; EPHB1, 0.2 µM, read-out: residual activity): 118% | remaining activity at 1 µM (340 wild-type kinases [5]; EPHB1, 1 µM, read-out: residual activity): 103% | remaining activity at 0.2 µM (340 wild-type kinases [6]; 0.2 µM 2015, read-out: RPS6KA6 residual activity): 89.7% | remaining activity at 1 µM (340 wild-type kinases [6]; 1 µM 2015, read-out: RPS6KA6 residual activity): 81.3% | remaining activity at 0.2 µM (340 wild-type kinases [6]; RPS6KA6, 0.2 µM, read-out: residual activity): 89.7% | remaining activity at 1 µM (340 wild-type kinases [6]; RPS6KA6, 1 µM, read-out: residual activity): 81.3% | remaining activity at 0.2 µM (340 wild-type kinases [7]; 0.2 µM 2015, read-out: TLK2 residual activity): 147% | remaining activity at 1 µM (340 wild-type kinases [7]; 1 µM 2015, read-out: TLK2 residual activity): 124% | remaining activity at 0.2 µM (340 wild-type kinases [7]; TLK2, 0.2 µM, read-out: residual activity): 147% | remaining activity at 1 µM (340 wild-type kinases [7]; TLK2, 1 µM, read-out: residual activity): 124% | remaining activity at 0.2 µM (340 wild-type kinases [8]; 0.2 µM 2015, read-out: CDK8/CycC residual activity): 92.5% | remaining activity at 1 µM (340 wild-type kinases [8]; 1 µM 2015, read-out: CDK8/CycC residual activity): 85.2% | remaining activity at 0.2 µM (340 wild-type kinases [8]; CDK8/CycC, 0.2 µM, read-out: residual activity): 92.5% | remaining activity at 1 µM (340 wild-type kinases [8]; CDK8/CycC, 1 µM, read-out: residual activity): 85.2%
